Laboratory results as given in patent publication US20230190741A1, “LONG-LASTING REABSORBABLE SUBCUTANEOUS IMPLANT WITH SUSTAINED RELEASE OF PRE-CONCENTRATED PHARMACOLOGICALLY ACTIVE SUBSTANCE IN POLYMER FOR THE TREATMENT OF ERECTILE DYSFUNCTION AND BENIGN PROSTATIC HYPERPLASIA” (priority 2020, published 2023).

What was measured:
[1] = tested on: erectile dysfunction; details: injection 10 mcg or 20 mcg applied directly to the penis, cited from earlier work
[2] = half-life of the oral drug; assay type: in vivo; details: tadalafil vs sildenafil
[3] = oral administration; cited from earlier work

Compound | duration of effect ([1]; depending on the patient) [h] | time until effect after application [1] [min] | half-life relative to half-life of sildenafil [2] [times] | loss of drug ingested (first-pass metabolism plus absorptive process) [3] [%]
CCCCC[C@H](O)/C=C/[C@H]1[C@H](O)CC(=O)[C@@H]1CCCCCCC(=O)O [alprostadil] | ≤ 2 | 20 | – | –
CN1CC(=O)N2[C@H](c3ccc4c(c3)OCO4)c3[nH]c4ccccc4c3C[C@@H]2C1=O [tadalafil] | – | – | 4.38 | ≤ 50
